Assay results published in the kinase profiling compilation of Christmann-Franck et al. (2016).
Each block holds one compound with its values, some of them ahead of it.

Key:
Assay in all cases: radiometric filter-binding kinase assay
[1] = molecular target: CAMKK1 (human) (UniProt Q8N5S9); conditions: ATP 20 µM
[2] = system: LCK (mouse); conditions: ATP 50 µM, accession and sequence are those of the human protein
[3] = system: SGK1 (human), O00141 [S422D]; conditions: ATP 20 µM
[4] = system: AKT1 (human), P31749 [S473D]; conditions: ATP 5 µM
[5] = molecular target: CAMKK2 (human) (UniProt Q96RR4); conditions: ATP 20 µM
[6] = molecular target: PLK1 (human) (UniProt P53350); conditions: ATP 5 µM
[7] = molecular target: NEK2 (human) (UniProt P51955); conditions: ATP 50 µM
[8] = molecular target: GSK3B (human) (UniProt P49841); conditions: compound 1.0 µM; ATP 5 µM
[9] = molecular target: PAK7 (human) (UniProt Q9P286); conditions: ATP 20 µM
[10] = molecular target: MAPK15 (human) (UniProt Q8TD08); conditions: ATP 5 µM
[11] = molecular target: MAPK10 (human) (UniProt P53779); conditions: ATP 50 µM
[12] = molecular target: MAPKAPK2 (human) (UniProt P49137); conditions: ATP 20 µM
[13] = molecular target: MAPK3 (human) (UniProt P27361); conditions: ATP 5 µM
[14] = molecular target: DYRK2 (human) (UniProt Q92630); conditions: ATP 50 µM
[15] = molecular target: PIM1 (human) (UniProt P11309); conditions: ATP 20 µM
[16] = molecular target: MAPKAPK3 (human) (UniProt Q16644); conditions: ATP 20 µM
[17] = molecular target: CHEK2 (human) (UniProt O96017); conditions: ATP 20 µM
[18] = molecular target: NEK6 (human) (UniProt Q9HC98); conditions: ATP 50 µM
[19] = molecular target: AURKC (human) (UniProt Q9UQB9); conditions: ATP 5 µM
[20] = molecular target: MKNK2 (human) (UniProt Q9HBH9); conditions: ATP 50 µM
[21] = molecular target: STK3 (human) (UniProt Q13188); conditions: ATP 20 µM
[22] = molecular target: HIPK3 (human) (UniProt Q9H422); conditions: ATP 20 µM
[23] = molecular target: MAPK9 (human) (UniProt P45984); conditions: compound 1.0 µM; ATP 20 µM
[24] = system: RPS6KB1 (human), P23443 [T412E]; conditions: ATP 20 µM
[25] = molecular target: MAP2K1 (human) (UniProt Q02750); conditions: compound 1.0 µM; ATP 5 µM
[26] = molecular target: DYRK3 (human) (UniProt O43781); conditions: ATP 5 µM
[27] = molecular target: IKBKB (human) (UniProt O14920); conditions: ATP 5 µM
[28] = molecular target: MAPK11 (human) (UniProt Q15759); conditions: ATP 20 µM
[29] = molecular target: PAK6 (human) (UniProt Q9NQU5); conditions: ATP 20 µM
[30] = molecular target: PRKCG (human) (UniProt P05129); conditions: ATP 5 µM
[31] = molecular target: MAPKAPK5 (human) (UniProt Q8IW41); conditions: ATP 20 µM
[32] = molecular target: MYLK (human) (UniProt Q15746); conditions: ATP 50 µM
[33] = molecular target: PDPK1 (human) (UniProt O15530)
[34] = molecular target: DYRK1A (human) (UniProt Q13627); conditions: compound 1.0 µM; ATP 50 µM
[35] = molecular target: PHKG1 or PHKG2 (human) (UniProt P15735+Q16816); conditions: compound 1.0 µM; ATP 50 µM
[36] = molecular target: MAPK13 (human) (UniProt O15264); conditions: compound 1.0 µM; ATP 5 µM
[37] = molecular target: PKN2 (human) (UniProt Q16513); conditions: compound 1.0 µM; ATP 5 µM

Sequence of RPS6KB1 (human), P23443 [T412E] (P23443 whole entry T412E, looked up): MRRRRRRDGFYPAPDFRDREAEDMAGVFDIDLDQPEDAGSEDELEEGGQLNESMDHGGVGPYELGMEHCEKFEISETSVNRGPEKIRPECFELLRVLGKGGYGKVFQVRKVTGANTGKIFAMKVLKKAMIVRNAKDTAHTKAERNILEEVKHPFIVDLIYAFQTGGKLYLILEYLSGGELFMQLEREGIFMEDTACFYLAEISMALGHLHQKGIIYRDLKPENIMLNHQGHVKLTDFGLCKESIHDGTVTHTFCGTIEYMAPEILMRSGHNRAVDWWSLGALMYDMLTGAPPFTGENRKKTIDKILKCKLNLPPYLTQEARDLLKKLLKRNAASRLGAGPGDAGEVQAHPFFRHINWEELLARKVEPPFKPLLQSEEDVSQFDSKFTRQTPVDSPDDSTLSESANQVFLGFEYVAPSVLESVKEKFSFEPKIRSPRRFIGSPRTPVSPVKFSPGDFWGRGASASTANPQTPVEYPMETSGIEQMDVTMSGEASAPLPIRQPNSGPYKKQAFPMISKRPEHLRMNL
Sequence of MAPK3 (human) (P27361 whole entry, looked up): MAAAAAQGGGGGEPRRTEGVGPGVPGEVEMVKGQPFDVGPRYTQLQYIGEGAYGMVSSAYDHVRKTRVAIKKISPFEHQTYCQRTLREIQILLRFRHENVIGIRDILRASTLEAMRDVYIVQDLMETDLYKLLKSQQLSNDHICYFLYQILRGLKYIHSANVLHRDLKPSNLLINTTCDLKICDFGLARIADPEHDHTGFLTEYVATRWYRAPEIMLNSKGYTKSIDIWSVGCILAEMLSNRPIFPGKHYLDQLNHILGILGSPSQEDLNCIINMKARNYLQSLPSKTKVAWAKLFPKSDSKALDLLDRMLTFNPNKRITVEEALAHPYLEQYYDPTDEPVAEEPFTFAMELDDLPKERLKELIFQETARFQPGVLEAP
Sequence of PAK6 (human) (Q9NQU5 whole entry, looked up): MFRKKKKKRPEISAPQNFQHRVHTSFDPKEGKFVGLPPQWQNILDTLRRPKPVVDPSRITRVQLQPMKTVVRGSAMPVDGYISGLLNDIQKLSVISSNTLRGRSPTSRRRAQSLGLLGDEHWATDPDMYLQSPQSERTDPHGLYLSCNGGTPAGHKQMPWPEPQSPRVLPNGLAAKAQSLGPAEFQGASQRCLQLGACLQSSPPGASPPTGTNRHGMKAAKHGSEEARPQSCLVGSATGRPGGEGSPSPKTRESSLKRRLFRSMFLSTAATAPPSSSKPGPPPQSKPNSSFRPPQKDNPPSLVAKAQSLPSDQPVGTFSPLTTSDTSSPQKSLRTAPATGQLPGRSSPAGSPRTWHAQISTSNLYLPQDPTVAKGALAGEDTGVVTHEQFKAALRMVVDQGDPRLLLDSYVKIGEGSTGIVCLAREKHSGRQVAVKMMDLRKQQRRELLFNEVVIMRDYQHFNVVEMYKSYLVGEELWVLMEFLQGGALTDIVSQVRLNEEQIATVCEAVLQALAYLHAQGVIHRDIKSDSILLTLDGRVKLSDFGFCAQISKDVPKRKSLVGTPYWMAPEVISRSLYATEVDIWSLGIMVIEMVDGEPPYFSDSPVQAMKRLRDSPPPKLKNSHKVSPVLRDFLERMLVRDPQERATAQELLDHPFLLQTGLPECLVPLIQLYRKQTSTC
Sequence of MYLK (human) (Q15746 whole entry, looked up): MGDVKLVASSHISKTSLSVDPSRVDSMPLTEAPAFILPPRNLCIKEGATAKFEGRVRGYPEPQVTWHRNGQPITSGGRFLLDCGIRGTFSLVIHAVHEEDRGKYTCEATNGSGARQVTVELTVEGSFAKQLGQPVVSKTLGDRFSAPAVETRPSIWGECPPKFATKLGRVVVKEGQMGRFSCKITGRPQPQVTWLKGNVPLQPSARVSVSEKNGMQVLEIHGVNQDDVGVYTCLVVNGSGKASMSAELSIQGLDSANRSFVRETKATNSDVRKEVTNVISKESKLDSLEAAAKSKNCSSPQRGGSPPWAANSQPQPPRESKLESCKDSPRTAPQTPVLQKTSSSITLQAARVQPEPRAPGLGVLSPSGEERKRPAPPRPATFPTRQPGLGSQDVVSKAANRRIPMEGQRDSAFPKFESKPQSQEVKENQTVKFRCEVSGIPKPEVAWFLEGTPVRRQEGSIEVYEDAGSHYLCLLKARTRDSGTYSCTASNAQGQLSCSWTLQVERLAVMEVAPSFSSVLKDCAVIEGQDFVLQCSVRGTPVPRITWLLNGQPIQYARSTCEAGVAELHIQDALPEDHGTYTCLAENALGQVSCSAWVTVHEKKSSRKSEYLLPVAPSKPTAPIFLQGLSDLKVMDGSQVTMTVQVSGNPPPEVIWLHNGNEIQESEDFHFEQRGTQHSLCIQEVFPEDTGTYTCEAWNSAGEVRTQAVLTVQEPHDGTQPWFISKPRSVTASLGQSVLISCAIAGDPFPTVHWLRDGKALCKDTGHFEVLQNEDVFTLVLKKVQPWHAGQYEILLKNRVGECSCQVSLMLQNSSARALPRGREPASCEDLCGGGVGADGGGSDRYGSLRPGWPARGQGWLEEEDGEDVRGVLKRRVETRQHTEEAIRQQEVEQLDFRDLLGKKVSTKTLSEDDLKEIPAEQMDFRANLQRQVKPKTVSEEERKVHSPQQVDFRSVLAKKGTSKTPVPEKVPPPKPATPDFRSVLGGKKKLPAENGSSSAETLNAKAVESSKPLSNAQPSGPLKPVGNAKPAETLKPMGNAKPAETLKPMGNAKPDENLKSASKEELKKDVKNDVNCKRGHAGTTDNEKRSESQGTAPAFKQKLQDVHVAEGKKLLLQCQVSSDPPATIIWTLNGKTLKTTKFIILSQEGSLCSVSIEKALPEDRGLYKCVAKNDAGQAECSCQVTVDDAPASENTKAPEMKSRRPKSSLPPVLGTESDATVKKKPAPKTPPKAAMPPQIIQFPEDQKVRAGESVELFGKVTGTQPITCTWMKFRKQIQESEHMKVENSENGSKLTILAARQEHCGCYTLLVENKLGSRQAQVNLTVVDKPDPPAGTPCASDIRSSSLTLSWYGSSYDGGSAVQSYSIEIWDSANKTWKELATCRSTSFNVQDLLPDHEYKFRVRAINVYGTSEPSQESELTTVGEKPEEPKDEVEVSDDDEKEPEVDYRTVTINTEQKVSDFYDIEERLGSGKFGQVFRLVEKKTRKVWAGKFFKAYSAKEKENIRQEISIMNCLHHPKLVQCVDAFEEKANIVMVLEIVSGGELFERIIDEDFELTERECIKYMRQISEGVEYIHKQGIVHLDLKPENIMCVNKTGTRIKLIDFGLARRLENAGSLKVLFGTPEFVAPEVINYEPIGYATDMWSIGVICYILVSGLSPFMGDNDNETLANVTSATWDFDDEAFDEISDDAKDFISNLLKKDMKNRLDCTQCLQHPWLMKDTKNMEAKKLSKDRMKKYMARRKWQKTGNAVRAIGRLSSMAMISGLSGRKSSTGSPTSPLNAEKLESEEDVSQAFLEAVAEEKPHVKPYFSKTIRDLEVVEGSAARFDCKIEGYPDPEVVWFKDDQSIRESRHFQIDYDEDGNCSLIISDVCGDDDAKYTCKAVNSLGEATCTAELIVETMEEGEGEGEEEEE
Sequence of PDPK1 (human) (O15530 whole entry, looked up): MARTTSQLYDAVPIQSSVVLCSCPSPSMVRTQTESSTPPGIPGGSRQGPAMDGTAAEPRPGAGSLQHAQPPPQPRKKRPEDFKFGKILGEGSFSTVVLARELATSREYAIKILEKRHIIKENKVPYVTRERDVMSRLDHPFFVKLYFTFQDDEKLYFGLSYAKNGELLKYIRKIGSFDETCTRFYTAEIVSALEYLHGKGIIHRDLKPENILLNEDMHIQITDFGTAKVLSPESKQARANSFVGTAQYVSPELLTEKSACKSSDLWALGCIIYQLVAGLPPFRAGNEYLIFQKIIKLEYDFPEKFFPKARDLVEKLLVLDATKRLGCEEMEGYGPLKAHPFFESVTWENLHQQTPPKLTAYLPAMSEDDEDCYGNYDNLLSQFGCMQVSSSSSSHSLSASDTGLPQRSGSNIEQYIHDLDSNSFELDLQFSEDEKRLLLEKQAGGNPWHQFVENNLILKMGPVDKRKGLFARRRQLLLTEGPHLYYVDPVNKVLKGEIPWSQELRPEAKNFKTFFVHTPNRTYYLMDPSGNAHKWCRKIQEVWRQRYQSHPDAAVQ
Sequence of PIM1 (human) (P11309 whole entry, looked up): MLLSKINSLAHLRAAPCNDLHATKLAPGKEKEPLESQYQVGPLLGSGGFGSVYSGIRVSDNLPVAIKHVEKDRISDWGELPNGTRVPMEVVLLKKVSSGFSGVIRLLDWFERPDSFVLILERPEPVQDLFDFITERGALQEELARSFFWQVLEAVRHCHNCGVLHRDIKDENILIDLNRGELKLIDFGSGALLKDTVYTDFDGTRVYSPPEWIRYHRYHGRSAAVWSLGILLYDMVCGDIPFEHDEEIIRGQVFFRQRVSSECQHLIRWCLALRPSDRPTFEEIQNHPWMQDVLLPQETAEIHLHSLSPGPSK

residual activity ([1]; compound 1.0 µM): 93%
residual activity ([1]; compound 10.0 µM): 62%
residual activity ([2]; compound 1.0 µM): 84%
residual activity ([2]; compound 10.0 µM): 65%
residual activity ([3]; compound 10.0 µM): 82%
residual activity ([4]; compound 10.0 µM): 64%
residual activity ([5]; compound 10.0 µM): 108%
residual activity ([6]; compound 1.0 µM): 79%
residual activity ([6]; compound 10.0 µM): 90%
residual activity ([7]; compound 1.0 µM): 91%
residual activity ([7]; compound 10.0 µM): 100%
residual activity [8]: 89%
residual activity ([9]; compound 1.0 µM): 96%
residual activity ([9]; compound 10.0 µM): 61%
residual activity ([11]; compound 1.0 µM): 88%
residual activity ([11]; compound 10.0 µM): 80%
residual activity ([12]; compound 1.0 µM): 84%
residual activity ([12]; compound 10.0 µM): 60%
residual activity ([13]; compound 1.0 µM): 93%
residual activity ([13]; compound 10.0 µM): 100%
residual activity ([14]; compound 1.0 µM): 113%
residual activity ([14]; compound 10.0 µM): 118%
residual activity ([15]; compound 1.0 µM): 80%
residual activity ([15]; compound 10.0 µM): 57%
residual activity ([16]; compound 1.0 µM): 86%
residual activity ([16]; compound 10.0 µM): 71%
residual activity ([17]; compound 10.0 µM): 83%
residual activity ([18]; compound 10.0 µM): 75%
residual activity ([19]; compound 1.0 µM): 75%
residual activity ([19]; compound 10.0 µM): 66%
residual activity ([20]; compound 10.0 µM): 80%
residual activity ([21]; compound 10.0 µM): 78%
residual activity ([22]; compound 1.0 µM): 77%
residual activity ([22]; compound 10.0 µM): 66%
residual activity [23]: 105%
residual activity ([24]; compound 1.0 µM): 100%
residual activity ([24]; compound 10.0 µM): 72%
residual activity [25]: 91%
residual activity ([26]; compound 1.0 µM): 86%
residual activity ([26]; compound 10.0 µM): 75%
residual activity ([27]; compound 10.0 µM): 90%
residual activity ([28]; compound 10.0 µM): 114%
residual activity ([29]; compound 1.0 µM): 116%
residual activity ([29]; compound 10.0 µM): 92%
residual activity ([30]; compound 1.0 µM): 105%
residual activity ([30]; compound 10.0 µM): 96%
residual activity ([31]; compound 1.0 µM): 85%
residual activity ([31]; compound 10.0 µM): 79%
residual activity ([32]; compound 1.0 µM): 79%
residual activity ([32]; compound 10.0 µM): 11%
residual activity ([33]; compound 1.0 µM, ATP 20 µM): 96%
residual activity ([33]; compound 1.0 µM, ATP 50 µM): 76%
residual activity ([33]; compound 10.0 µM, ATP 20 µM): 95%
SMILES: CC(C)(N)c1ccc(-c2nc3ccccc3nc2-c2ccccc2)cc1
residual activity ([10]; compound 10.0 µM): 71%

SMILES: O=S(=O)(NCCNC/C=C/c1ccc(Br)cc1)c1cccc2cnccc12
residual activity ([1]; compound 1.0 µM): 102%
residual activity ([3]; compound 1.0 µM): 62%
residual activity ([4]; compound 1.0 µM): 14%
residual activity ([5]; compound 1.0 µM): 102%
residual activity ([6]; compound 1.0 µM): 95%
residual activity [34]: 96%
residual activity ([7]; compound 1.0 µM): 102%
residual activity [8]: 88%
residual activity ([9]; compound 1.0 µM): 84%
residual activity ([10]; compound 1.0 µM): 93%
residual activity ([11]; compound 1.0 µM): 93%
residual activity ([12]; compound 1.0 µM): 111%
residual activity ([13]; compound 1.0 µM): 90%
residual activity [35]: 76%
residual activity ([14]; compound 1.0 µM): 105%
residual activity [36]: 98%
residual activity ([15]; compound 1.0 µM): 90%
residual activity ([16]; compound 1.0 µM): 105%
residual activity ([17]; compound 1.0 µM): 69%
residual activity ([18]; compound 1.0 µM): 104%
residual activity ([19]; compound 1.0 µM): 73%
residual activity ([20]; compound 1.0 µM): 97%
residual activity ([21]; compound 1.0 µM): 81%
residual activity ([22]; compound 1.0 µM): 106%
residual activity ([24]; compound 1.0 µM): 11%
residual activity ([26]; compound 1.0 µM): 65%
residual activity ([27]; compound 1.0 µM): 98%
residual activity ([28]; compound 1.0 µM): 91%
residual activity ([29]; compound 1.0 µM): 76%
residual activity [37]: 7%
residual activity ([30]; compound 1.0 µM): 55%
residual activity ([31]; compound 1.0 µM): 89%
residual activity ([32]; compound 1.0 µM): 91%
residual activity ([33]; compound 1.0 µM, ATP 20 µM): 91%
residual activity ([33]; compound 1.0 µM, ATP 50 µM): 56%
